According to patent US11472723B2, “Method for removing heavy metals from an aqueous solution” (NEWSOUTH INNOVATIONS PTY LIMITED, priority 2016, dated 2022):
≈ marks a conversion by molar mass, not a printed value. Where “and” joins values, the source holds several entries; their conditions need not be identical. Equal entries are not always repeated. Where two headings read alike, the source gives them in different places. Marks after values point to notes of the source that are not given here. One block for each compound: values may come before it.

Key:
[1] = for As(III) / As(V) / Total As removal / Total As(V) reduced to As(III) / Total conc.: feed 5320.6 μg/L, 0.01M surfactant
Method: The As(V)/As(III) speciation measurements were carried out using a PE 200 Series HPLC, using a PRPX 100 Column, attached to a PE DRC-e (Dynamic Reaction Cell-e) ICPMS. 20 milli molar ammonium phosphate buffer was used as carrier solution at 1.5 ml/min with a matched Meinhart nebuliser and baffled spray chamber. The plasma conditions used were: 1500 W RF, at a gas flow rate of […].
Column solution samples after 30 minutes, and the solution remaining inside the column after 90 minutes, were sent for arsenic speciation determination analysis. It appears that after about half an hour the maximum adsorption of arsenic was obtained because no further foam was collected at the top of the column.

[2] = Foaming test; assay type: physicochemical; conditions: about one tenth of CMC in water, shaken with air, Passed/Failed
Method: A foaming test was performed by dissolving the test compound in water at a concentration of approximately one tenth of the CMC of the test compound. The solution was then placed in a stoppered vessel with air and shaken and a visual observation made as to whether a stable foam had been formed.

[3] = Solubility in water; conditions: for Solubility in water up to minimum 0.01M: Yes/No
Text: The synthesized surfactants were compared to each other with respect to their water solubility, conductivity, critical micelle concentration and foaming ability to determine basic suitability for the ion flotation process.

[4] = Ion flotation of arsenic solution in bubble column, As by ICP-MS; conditions: for Adsorption (%) / arsenic removal: time not stated; for Arsenic removal after 90 minutes / arsenic removal: flotation; for Arsenic removal after 90 minutes: 5 ppm arsenic solution
Method: (§1) An ICP-MS (Perkin Elmer, NexION 300D with Universal cell technology) was used to determine the arsenic, mercury and lead solution concentrations.
In a typical experiment, 0.01 M of the single chain octanoyl-cysteine surfactant was dissolved (with stirring and heating to not more than 65° C.) in a solution of arsenic (HAsO4^2−) 5 ppm containing NaOH 0.1 M (to keep the pH at about 8), which was then made up to 100 ml using Milli-Q water.
Two samples were taken after 30, 60 and 90 minutes and the arsenic concentration of each sample was determined by ICP-MS. The upper outlet foam was also collected in a waste container using an outlet tube. […]

[5] = Ion flotation of lead ions with octanoyl-cysteine surfactant; conditions: 5 ppm Pb, 0.01M surfactant
Method: as §1
(§2) In similar ion flotation experiments, the removal rates for low levels of mercury and lead ions were also determined using the octanoyl-cysteine surfactant. The experiments were carried out using both air and pure N2 gas.

[6] = literature value (footnotes a-d); cited from earlier work
[7] = Ion flotation of mercury ions with octanoyl-cysteine surfactant; conditions: 5 ppm Hg, 0.01M surfactant
Method: as §1, §2

[8] = Critical micelle concentration (CMC) in water; assay type: physicochemical
Text: In the bulk aqueous phase, surfactants form aggregates, such as micelles, at concentrations above the critical micelle concentration (CMC), where the hydrophobic tails form the core of the aggregate and the hydrophilic heads are in contact with the surrounding liquid. The CMC of a surfactant in an aqueous solution can be determined by a person skilled in the art using techniques known in the art. For example, the CMC of a surfactant can be determined by measuring changes in the conductance or surface tension of the solution at different concentrations of the surfactant.

[9] = As in the waste collector (after 30 mins.)
[10] = As remaining in the flotation cell (after 90 mins)
[11] = 5 ppm As, 0.01M surfactant, inlet gas Air

SMILES: CCCCCCCC(=O)N[C@@H](CS)C(=O)O [octanoyl-cysteine]
- As(III) [1, 9]: 5259.4 µg/L
- As(V) [1, 9]: 27.9 µg/L
- Total As removal [1, 9]: 99.38%
- Total As(V) reduced to As(III) [1, 9]: 99.47%
- Total conc. [1, 9]: 5287.4 µg/L
- Total As(V) reduced to As(III) ([1]; As in the waste collector (after 30 mins.), listed as single chain octanoyl-cysteine): about 99.47%
- As(III) [1, 10]: 6.2 µg/L
- As(V) [1, 10]: 27.1 µg/L
- Total As removal [1, 10]: 99.38%
- Total As(V) reduced to As(III) [1, 10]: 99.49%
- Total conc. [1, 10]: 33.2 µg/L
- Total As removal ([1]; As remaining in the flotation cell (after 90 mins), listed as single chain octanoyl-cysteine): 99.38%
- As (V) remaining in the column reduced to As (III) ([1]; between the first 30 mins and 90 minutes, samples from inside the column): 0.02%
- Foaming test [2]: Passed
- Solubility in water up to minimum 0.01M [3]: Yes
- Adsorption after 30 min (%) [4, 11]: 72.6%
- Adsorption after 60 min (%) [4, 11]: 99.88%
- Adsorption (%) ([4]; 100 ml of 5 ppm arsenic solution, purified product, Air): 99.9 (Air) %
- Adsorption (%) ([4]; 100 ml of 5 ppm arsenic solution, purified product, N2 gas, listed as single chain octanoyl cysteine): 98.6 (N2) % and 99.4 (N2) %
- Adsorption (%) ([4]; 100 ml of 5 ppm arsenic solution, raw product, N2 gas, listed as single chain octanoyl cysteine): 93.8 (N2) % and 88.2 (N2) %
- Arsenic removal after 90 minutes [4]: 99.4%
- arsenic removal [4]: 99.00%
- average removal of arsenic ([4]; tests 1 and 2, raw unpurified product, 5 ppm feeding solution, after 90 minutes): 91.00%
- average removal of arsenic ([4]; tests 3 and 4, purified (2 times recrystallized) product, after 30 minutes): 99.00%
- Adsorption after 30 min (%) ([5]; inlet gas Air): 92%
- Adsorption after 60 min (%) ([5]; inlet gas Air): 99.1%
- Adsorption after 30 min (%) ([5]; inlet gas N2): 94.9%
- Adsorption after 60 min (%) ([5]; inlet gas N2): 99.4%
- CMC in water (M) [6]: 0.12*^a M
- Adsorption after 30 min (%) ([7]; inlet gas Air): 99.6%
- Adsorption after 60 min (%) ([7]; inlet gas Air): 99.6%
- Adsorption after 30 min (%) ([7]; inlet gas N2): 99.59%
- Adsorption after 60 min (%) ([7]; inlet gas N2): 99.96%

- Foaming test [2]: Passed
- solubility in water (in words) [3]: low solubility in water
- Solubility in water up to minimum 0.01M [3]: No
- solubility ([3]; water): 300 µM (≈ 91 µg/mL)
- CMC (in words) [8]: low CMC values
SMILES: CCCCCCCCCCCC(=O)N[C@@H](CS)C(=O)O
- CMC in water (M) [6]: 0.02 × 10^−3*^d M

- Foaming test [2]: Failed
- Foaming test ([2]; listed as double chain-octyl isocyanate cystine): produced no foaming in solution
- CMC (in words) [8]: acceptably high CMC values
SMILES: CCCCCCCCNC(=O)N[C@@H](CSSC[C@H](NC(=O)NCCCCCCCC)C(=O)O)C(=O)O [D-octyl isocyanate cystine]
- CMC in water (M) [6]: 0.008*^c M

SMILES: CCCCCCCCSC[C@H](N)C(=O)O [S-octyl cysteine, reference compound]
- Foaming test [2]: Failed
- Foaming test ([2]; listed as single chain octyl based cysteine surfactant): failed the foaming test
- solubility in water (in words) [3]: good solubility
- Solubility in water up to minimum 0.01M [3]: Yes
- Adsorption after 30 min (%) ([4]; 100 ml of 5 ppm arsenic solution, surfactant 0.001 M (D-dodecanoyl cystine 0.01 × 10^−3 M)): 0%
- Arsenic removal after 90 minutes [4]: 0%
- arsenic removal [4]: no arsenic removal was observed
- CMC (in words) [8]: high CMC
- CMC in water (M) [6]: 0.006*^b M
